Source: patent US11987571B1, “Ethyl 2-[9-(6-chloro-2-hydroxyquinolin-3-yl)-3,6-diphenyl-1,8-dioxo-3,4,9,10-tetrahydroacridine-10-yl]-acetate as an antimicrobial compound” (KING FAISAL UNIVERSITY, priority 2023, dated 2024)

Key:
[1] = test system: Escherichia coli; assay: Antimicrobial activity by agar dilution, E. Coli; assay type: cell-based; conditions: after 10, 20, 40 and 60 minutes at all dilutions 1:100, 1:200, 1:400, and 1:800
Protocol: (§1) The antibacterial properties of the synthesized compound (ethyl 2-[9-(6-chloro-2-hydroxyquinolin-3-yl)-3,6-diphenyl-1,8-dioxo-3,4,9,10-tetrahydroacridine-10-yl]-acetate) were studied by the method of agar dilution. Test solutions of each compound was prepared in concentration of 1% using dimethylformamide as a solvent. Then they were diluted in physiological solution to obtain the final experimental dilutions of 1:100, 1:200, 1:400, and 1:800. The effect of these substances were compared with furacillin in a controllable study. The testing microbes used were gram positive bacteria Staphylococcus aureus, gram negative bacteria Pseudomonas aeruginosa, Escherichia coli, and Candida albicans fungus. The experiments used for this survey were meat-pentonlu agar (EPA) for cultivation of bacteria and Saburo environment for fungi. Each experiment used 1 mL of test solution on each plate for […]. Two drops of emulsified with microbes feel were added. All experimental samples were taken from the agar after 10, 20, 40, 60 minutes in the environment on the basis of Patrk planted. Bacteria were cultivated at a temperature of 37° C. for 1 day and the mushroom was kept in a thermostat for […] at a temperature of 28° C. Then results were checked. Those of control and the antimicrobial activity for the synthesized compounds are listed in Table 1 below, with furacillin serving as a reference.

[2] = test system: Candida albicans; assay: Antimicrobial activity by agar dilution, Candida albicans; assay type: cell-based; conditions: after 10, 20, 40 and 60 minutes at all dilutions 1:100, 1:200, 1:400, and 1:800
Protocol: as §1

[3] = test system: Pseudomonas aeruginosa; assay: Antimicrobial activity by agar dilution, Ps. aeruginosa; assay type: cell-based; conditions: after 10, 20, 40 and 60 minutes at all dilutions 1:100, 1:200, 1:400, and 1:800
Protocol: as §1

[4] = test system: Staphylococcus aureus; assay: Antimicrobial activity by agar dilution, St. Aereus; assay type: cell-based; conditions: after 10, 20, 40 and 60 minutes at all dilutions 1:100, 1:200, 1:400, and 1:800
Protocol: as §1

CCOC(=O)CN1C2=C(C(=O)CC(c3ccccc3)C2)C(c2cc3cc(Cl)ccc3nc2O)C2=C1CC(c1ccccc1)CC2=O (centres unmarked) [ethyl 2-[9-(6-chloro-2-hydroxyquinolin-3-yl)-3,6-diphenyl-1,8-dioxo-3,4,9,10-tetrahydroacridine-10-yl]-acetate]
melting point: 222 °C
inhibition activity compared with Furacilin [1]: higher inhibition activity
inhibition activity compared with Furacilin [2]: higher inhibition activity
inhibition activity compared with Furacilin [3]: higher inhibition activity
inhibition activity compared with Furacilin [4]: higher inhibition activity
